Key:
[1] = system: LPS-stimulated TNFα and IL-1β production; test: LPS-stimulated Mφ cytokine production; assay type: cell-based, human; settings: FIG. 14
Text: Using the T cell membrane-Mφ cell contact bioassay, small molecule antagonists were identified that differentially block anti-CD3/anti-CD28 activated T-cell mediated—but not LPS stimulated—TNFα and IL-1β production from peripheral blood resident CD14^+ Mφ. Several kinase inhibitors were selected and assessed for the effects of these compounds in blocking TNFα and/or IL-1β production using a validated T-cell membrane-Mφ contact bioassay. […] Therefore, the activated T-cell membrane-Mt contact bioassay using human T-cells and Mφ can be used to establish high-throughput screens with recombinant TCISM (once identified and cloned) to identify orally-active, small molecule antagonists that specifically target adaptive, but not LPS-mediated, innate immunity. Some orally active, small molecule TNFα and/or IL-1β inhibitors which interfere specifically with T-cell mediated Mφ activation, leading to enhanced cytokine production but not LPS-mediated Mφ cytokine release, have a favorable therapeutic/side effect profile in T-cell mediated skin diseases such as Ps.

[2] = system: T-cell-mediated TNFα production from human Mφ; test: T cell membrane-Mφ cell contact bioassay (activated T-cell mediated cytokine production); assay type: cell-based; settings: anti-CD3/anti-CD28 activated T-cell membranes; CD14+ Mφ; FIG. 14
Method: Primary T cells or H9 cells were washed with cold PBS and cell pellets were resuspended in freshly made 1% paraformaldehyde at 5×10^6 cells/ml. Cells were fixed on ice for 2 hours, and then washed with 20× volume of cold PBS three times. Following the third wash, the cells were kept in PBS at 4° C. overnight to allow diffusion of paraformaldehyde. Cells were centrifuged and washed one more time. The fixed T cells were resuspended in medium at 1×10^7 cells/ml and dispensed into a 96 well U bottom plate at about 1×10^6/ml THP-1 cells 100 μl per well. Primary T cells or H9 cells (100 μl per well) were added at 8×, 4×, and 2×10^6 cells/ml. The plates were incubated at 37° C., in humidified 5% CO2 for 48 hours. Plates were centrifuged at 1,500 rpm for 5 minutes and supernatant (120 μl) transferred into a fresh plate. The supernatant was stored at −20° C. until used. […]
Using the T cell membrane-Mφ cell contact bioassay, small molecule antagonists were identified that differentially block anti-CD3/anti-CD28 activated T-cell mediated—but not LPS stimulated—TNFα and IL-1β production from peripheral blood resident CD14^+ Mφ. Several kinase inhibitors were selected and assessed for the effects of these compounds in blocking TNFα and/or IL-1β production using a validated T-cell membrane-Mφ contact bioassay. […]

[3] = system: Murine Collagen-Induced Arthritis; test: Murine Collagen-Induced Arthritis study; assay type: in vivo, mice; settings: 50 mg/kg P.O. once per day beginning at day +1; day +13 after induction; FIG. 18
Method: Mice were immunized with CII+CFA on day 0 and boosted on day 21 with CII+IFA. A total of 10 DBA female mice per group were used. Drugs were administered as shown and started on the first day of initial signs of paw swelling/arthritis. Mean arthritis score (see data below) was assessed according to the procedure of Bendele et al., Arthritis & Rheumatism, 2000, 43(12), pp 2648-2659. […] Mice were treated 8 days after showing signs of collagen induced arthritis.
FIG. 18 is a joint histopathology of representative mice. In FIG. 18, panel A denotes a knee joint obtained from a DBA mouse with collagen-induced arthritis treated with an isotype-control rat-anti-mouse MAb (negative control) showing that […] over the course of this control treatment.

Compound: C[S+]([O-])c1ccccc1-n1cnc(-c2ccc(F)cc2)c1-c1ccncc1 (stereo not drawn) [Compound C]
- Effect on LPS-stimulated TNFα and IL-1β production [1]: without having any significant effect
- Inhibition of T-cell-mediated TNFα production from human Mφ [2]: completely inhibit
- Joint histopathology (knee joint inflammation) [3]: reduced inflammation

— US20100168210A1, “T-Cell Cytokine-Inducing Surface Molecules and Methods of Use” (priority 2007, published 2010)
